Reference: patent US20110014164A1, “EFFICIENT INDUCTION OF PLURIPOTENT STEM CELLS USING SMALL MOLECULE COMPOUNDS” (PRESIDENT AND FELLOWS OF HARVARD COLLEGE, priority 2008, published 2011)

Tests used:
[1] = test system: MEFs infected with Oct4, Sox2 and Klf4; experiment: GFP positive iPS colony number in 3-factor infected MEFs; assay type: cell-based, mouse
Source text: FIG. 2(c) Representative pictures at 16 days post-infection showing a significant increase of GFP positive iPS colonies in 3-factor infected MEFs with VPA treatment compared to non-treated control.
Retroviral introduction of c-Myc could cause tumorigenecity in cells derived from the iPS cells thus generated^2. […] Similar low efficiency was also reported for induction of iPS cells from mouse fibroblasts without c-Myc^24. We tested whether treating the cells with 5′-azaC or VPA improves the efficiency of iPS colony formation without the need for c-Myc. MEFs were first infected with Oct4, Sox2 and Klf4, then treated with 5′-azaC or VPA for a week starting 1 day post-infection. […] Consistent with the FACS data, a 30-40 fold increase of GFP positive colonies was observed compared to control MEFs without treatment (FIG. 2c). This allowed for picking of iPS colonies within two weeks post-infection, sooner than the typical ˜30 days post-infection or later without chemical treatment^13, 24.
For the generation of mouse iPS cells, infected MEFs were cultured in mouse ES cell media until iPS colonies were ready to be picked. In some experiments, knockout serum replacement was used instead of the Hyclone FBS in the mouse ES cell media, which appeared to accelerate the reprogramming process, consistent with a recent report^26. […]

iPS-m cell lines = experiment: Karyotype (chromosome) analysis of iPS-m cell lines induced by VPA treatment; assay type: cell-based, mouse
Source text: Supplementary FIG. 4. Chromosome analysis of iPS-m cells. […] Shown here is a representative chromosome analysis image from iPS-m84.
(§1) Therefore, VPA partially reprograms MEFs towards more ES cell-like.

[2] = test system: human BJ and NHDF cells infected by Oct4 and Sox2; experiment: iPS induction in 2-factor (Oct4, Sox2) infected human fibroblasts; assay type: cell-based; details: both with VPA treatment
Source text: b. In the published reprogramming protocol, infected human fibroblasts are typically cultured in fibroblast media first, then reseeded on feeders and switched to hES cell media about a week post-infection. In the modified protocol, human fibroblasts were replated immediately after infection, treated with VPA in hES media, and subsequently cultured in hES media.
c. The efficiency of iPS colony induction by 3 factors (Oct4, Sox2 and Klf4) and 2 factors (Oct4 and Sox2) with VPA treatment are plotted. Each dot represents one experiment; each bar represents the average for each condition.
Encouraged by the more efficient 3-factor reprogramming with VPA treatment, we explored the possibility of eliminating some of the transcription factors. The modified induction method with VPA treatment (FIG. 9b) was applied to human BJ and NHDF cells infected by different 2-factor combinations, and AP^+ iPS colonies were identified about 1 month post-infection in fibroblasts infected by Oct4 and Sox2. Karyotypically normal iPS cell lines (Table 2) were established from 2-factor infected human fibroblasts. On average, between 1 and 5 iPS lines were successfully established out of every 100,000 BJ or NHDF cells infected by Oct4 and Sox2 (FIG. 9c). […] The efficiency of reprogramming by 2 factors, however, was ˜100 fold lower than that by 3 factors both with VPA treatment. […]

uninfected MEFs = experiment: Microarray analysis on uninfected MEFs treated with VPA; assay type: cell-based, mouse
Source text: (a) Genes that were specifically expressed in ES cells and MEFs (>10 fold difference) were selected, and scatter plot was generated to visualize the effect of VPA treatment on the expression of these genes. Each blue dots represent one gene, and the position of the blue dot indicate the relative expression level, the average signal (AVE_signal), in MEFs treated with VPA versus untreated. The thick red line indicates identical expression levels. The two adjacent red lines indicate positions where VPA treatment causes a two fold up or down-regulation of the gene expression.
(b) Examples of the relative levels of expression of ES cell-specific transcripts (Rex3 and Zfp7) in ES cells, iPS-m cells, untreated MEFs and MEFs treated with VPA.
(c) Examples of the relative levels of expression of MEF-specific transcripts (Aspn and Meox2) in ES cells, iPS-m cells, untreated MEFs and MEFs treated with VPA.
as §1
For transcriptional analysis, total RNA was isolated from cells cultured in 6 well dishes using RNeasy Mini Kit and QlAshredder from Qiagen. Biotinylated antisense RNA were amplified using Illumina Total Prep RNA amplification Kit from Ambion, hybridized to Illumina Whole-Genome Expression BeadChips (MouseRef-8) and analyzed by Illumina Beadstation 500. All samples were prepared in two to three biological repeats. Data were analyzed using the Beadstudio software provided by Illumina.

[3] = uninfected MEFs, 2 mM VPA for a week

Compound: CCCC(CCC)C(=O)O [VPA, valproic acid]
- increase of GFP positive colonies compared to control MEFs without treatment [1]: 30-40 fold
- iPS-m cell lines with normal karyotypes (iPS-m cell lines; iPS-m81, 82, 83 and 84 induced by VPA treatment): Three out of four
- genetic changes at the level of chromosomal abnormalities (iPS-m cell lines; iPS-m cell lines induced with VPA (Table 1)): Nor does VPA treatment cause detectable genetic changes
- efficiency of reprogramming by 2 factors lower than by 3 factors [2]: ~100 fold
- expression of ES cell-specific genes Rex3 and Zfp7 (uninfected MEFs; MEFs treated with VPA versus untreated MEFs): up-regulated by more than twenty fold
- expression of MEF-specific genes Aspn and Meox2 (uninfected MEFs; VPA treated MEFs versus untreated MEFs): down-regulated by more than twenty fold
- effect on endogenous c-Myc gene expression (uninfected MEFs; [3]): did not have a significant effect
- share of the 214 genes down-regulated >10 fold in ES cells that are down-regulated by more than two fold (uninfected MEFs; [3]): 55%
- share of the 214 genes down-regulated >10 fold in ES cells that are up-regulated by more than two fold (uninfected MEFs; [3]): 6.2%
- share of the 968 genes up-regulated >ten fold in ES cells that are down-regulated by more than two fold (uninfected MEFs; [3]): 4.5%
- share of the 968 genes up-regulated >ten fold in ES cells that are up-regulated by more than two fold (uninfected MEFs; [3]): 66%
